The values below come from patent US20230303552A1, “ARYLSULFONYL DERIVATIVES AND THEIR USE AS MUSCARINIC ACETYLCHOLINE RECEPTOR M5 INHIBITORS” (Vanderbilt University, priority 2020, published 2023).

The target in this experiment is T1, human M5 receptors (hM5) (Homo sapiens, UniProt P08912).
T1 construct: expressed in transfected cells
T1 sequence (P08912 1-532): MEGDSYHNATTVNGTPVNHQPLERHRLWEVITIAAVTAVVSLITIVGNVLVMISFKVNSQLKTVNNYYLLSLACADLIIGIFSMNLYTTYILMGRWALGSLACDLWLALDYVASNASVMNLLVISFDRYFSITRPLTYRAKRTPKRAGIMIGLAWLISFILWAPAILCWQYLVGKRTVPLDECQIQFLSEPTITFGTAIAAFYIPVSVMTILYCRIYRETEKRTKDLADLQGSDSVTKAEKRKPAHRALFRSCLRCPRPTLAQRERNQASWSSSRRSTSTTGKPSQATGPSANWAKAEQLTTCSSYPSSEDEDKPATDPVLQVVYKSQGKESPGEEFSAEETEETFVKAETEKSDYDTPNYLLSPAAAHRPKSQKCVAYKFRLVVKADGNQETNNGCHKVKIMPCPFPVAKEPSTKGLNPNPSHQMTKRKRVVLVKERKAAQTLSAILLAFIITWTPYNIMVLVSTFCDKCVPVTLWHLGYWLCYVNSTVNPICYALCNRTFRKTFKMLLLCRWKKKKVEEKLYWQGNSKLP
Briefly: Cell-based functional calcium mobilization assay of mAChR M5 activity (inhibition of EC80 acetylcholine response) in CHO cells. The settings on record: CHO cells stably expressing hM5; for IC50: calcium flux (Fluo-4), EC80 acetylcholine addition; for EC80 MIN: minimum of EC80 acetylcholine response, normalized to maximum acetylcholine response. The protocol: All functional cell-based assays were performed essentially as previously described (Marlo et al., Mol.Pharm. 2009, 75(3), 577-588; Brady et al., J. Pharm. & Exp. Ther. 2008, 327, 941-953). Initial, single point (10 µM) competitive and non-competitive inhibitor characterization was performed in stable Chinese Hamster Ovary (CHO) cell lines constitutively expressing human M5 receptors. These were plated at 15,000 cells per 20 µL per well in Greiner 384-well black-walled, TC-treated, clear-bottomed plates (Fisher) in Ham’s F12 medium supplemented with 10% FBS and 20 mM HEPES. Cells were incubated overnight at 37° C. under 5% CO2. The following day, medium was exchanged with assay buffer (Hank’s Balanced Salt Solution supplemented with 20 mM HEPES and 2.5 mM Probenecid, pH 7.4) leaving 20 µL of assay buffer in each well. This was followed by the addition of 20 µL of 2.3 µM of Fluo-4 AM (Invitrogen) in assay buffer (final concentration 1.15 µM). The cells were then incubated 50 minutes at 37° C. under 5% CO2. The assay buffer plus dye was then exchanged with fresh assay buffer leaving a volume of 20 µL in each well. Test compounds were diluted into assay buffer to a 2X (20 µM) concentration in 0.2% dimethylsulfoxide (DMSO) in columns 3 - 22 with matching DMSO concentration in columns 1, 2, 23, and […]; compounds were added to the assay for a final concentration of 10 µM and a final DMSO concentration of 0.1%. Acetylcholine (Sigma-Aldrich) was prepared to provide 5X concentrations of EC20, EC80, and ECmax in the triple-addition assay, providing a signal window to view agonism, potentiation, and inhibition of the acetylcholine response as well as a means to normalize to the maximum acetylcholine response.
Either an FDSS (Hamamatsu) or Panoptic (WaveFront Biosciences) kinetic imaging plate reader was used for assay execution and measurement of calcium flux. After establishing baseline fluorescence, test compounds (20 µL) were added to the cells using the reader’s integrated pipettor and allowed to equilibrate for 140 seconds before addition of the EC20 concentration of acetylcholine (10 µL) along with vehicle in selected DMSO-only wells in the outer two columns. The EC80 concentration of acetylcholine (10 µL) was added 125 seconds after the EC20 addition along with ECmax concentration in the wells receiving vehicle in the second addition. The raw fluorescence data from each well was normalized to the corresponding initial fluorescence reading (static ratio). The maximum fluorescence value following each addition was determined and the minimum value within that same timeframe was subtracted for each well then normalized to the average of the ECmax maximum-minimum response, providing a %AChmax value for each addition for each well. The single point values represent mean values determined within the EC80 addition timeframe obtained from at least three independent determinations performed in triplicate or greater (error bars represent +/- SEM) unless otherwise specified.
Further characterization of competitive and non-competitive inhibitor compounds (compound potency and mAChR subtype-selectivity) was performed on the FDSS with calcium mobilization assays performed as previously described (Marlo et al., 2009; Brady et al., 2008) and in a format similar to that described above using the same reagents. CHO cells stably expressing hM1, hM2/Gqi5, hM3, hM4/Gqi5, hM5, rM1, rM2/Gqi5, rM3, rM4/Gqi5, or rMs were plated in the manner described above. A ten-point concentration range of test compound was serial diluted in assay buffer to 2X final concentration and acetylcholine was diluted in assay buffer to 5X of the EC20 and EC80 concentrations, determined empirically and 5X maximal (2 mM final concentration) stock concentrations. FDSS protocols were carried out as described above; the static ratio was calculated and the minimum response subtracted from the maximum response within the timeframe of each addition. […]
(Calcium assays in cells follow changes in intracellular calcium, usually with a dye or a luminescent sensor.)

As a reminder, the IC50 is the concentration needed to halve the response being measured.

On to `CC1Cc2cc(S(=O)(=O)N3CC[C@@H](C(=O)Nc4ccc5scnc5c4)C3)ccc2O1` (mixture of isomers) [Compound 88, (3R)-N-(benzo[d]thiazol-5-yl)-1-((2-methyl-2,3-dihydrobenzofuran-5-yl)sulfonyll)pyrrolidine-3-carboxamide], for which the IC50 is 4960 nM and the “EC80 MIN” value is 3%.

As for `CC1COc2ccc(S(=O)(=O)N3CC[C@@H](C(=O)Nc4ccc5scnc5c4)C3)cc21` (mixture of isomers) [Compound 132, (3R)-N-(benzo[d]thiazol-5-yl)-1-((3-methyl-2,3-dihydrobenzofuran-5-yl)sulfonyl)pyrrolidine-3-carboxainide], the IC50 amounted to 42 nM and the “EC80 MIN” value is 2%.

For `CC1COc2ccc(S(=O)(=O)N3C[C@H](C(=O)Nc4ccc5scnc5c4)[C@@H](C)C3)cc21` (mixture of isomers) [Compound 133, (3R,4R)-N-(benzo[d]thiazol-5-yl)-4-methyl-1-((3-methyl-2,3-dihydrobenzofuran-5-yl)sulfonyl)pyrrolidine-3-carboxamide], the half-maximal inhibitory concentration (IC50) is 156 nM and the “EC80 MIN” value is 3%.

Turning to `Cc1cc2c(cc1S(=O)(=O)N1CC[C@@H](C(=O)Nc3ccc4scnc4c3)C1)C(C)CO2` (mixture of isomers) [Compound 146, (3R)-N-(benzo[d]thiazol-5-yl)-1-((3,6-dimethyl-2,3-dihydrobenzofuran-5-yl)sulfonyl)pyrrolidinc-3-carboxamide], the half-maximal inhibitory concentration (IC50) worked out at 74 nM and the “EC80 MIN” value was 2%.

Turning to `O=C(Nc1ccc2scnc2c1)C1CCN(S(=O)(=O)c2ccc3c(c2)CCO3)C1` (racemic) [Compound 15, (rac)-N-(benzo[d]thiazol-5-yl)-1-((2,3-dihydrobcnzofuran-5-yl)sulfonyl)pyrrolidine-3-carboxamide], the half-maximal inhibitory concentration (IC50) came to 47 nM and the “EC80 MIN” value came to 2%.

For the compound `O=C(Nc1ccc2scnc2c1)C12CC1CN(S(=O)(=O)c1ccc3c(c1)CCO3)C2` (racemic) [Compound 23, (rac)-N-(benzo[d]thiazol-5-yl)-3-((2,3-dihydrobenzofuran-5-yl)sulfonyl)-3-azabicyclo[3.1.0]hexane-1-carboxamide], the IC50 worked out at 248 nM and the “EC80 MIN” value is reported as 2%.

On to `O=C(Nc1ccc2scnc2c1)C1CCN(S(=O)(=O)c2cccnc2)C1` (racemic) [Compound 38, (rac)-N-(benzo[d]thiazol-5-yl)-1-(pyridin-3-ylsulfonyl)pyrrolidine-3-carboxamide], for which the IC50 is over 10000 nM and the “EC80 MIN” value was determined as 29%.

For `O=C(Nc1ccc2scnc2c1)C12CC1CN(S(=O)(=O)c1cccnc1)C2` (racemic) [Compound 40, (rac)-N-(benzo[d]thiazol-5-yl)-3-(pyridin-3-ylsulfonyl)-3-azabicyclo[3.1.0]hexane-1-carboxamide], the concentration for half-maximal inhibition (IC50) was over 10000 nM and the “EC80 MIN” value was 53%.

As to `O=C(Nc1ccc2scnc2c1)C12CC1CN(S(=O)(=O)c1cc3c(cc1F)OCC3)C2` (racemic) [Compound 43, (rac)-N-(benzo[d]thiazol-5-yl)-3-((6-fluoro-2,3-dihydrobenzofuran-5-yl)sulfonyl)-3-azabicyclo[3.1.0]hexane-1-carboxamide], the concentration for half-maximal inhibition (IC50) worked out at 202 nM and the “EC80 MIN” value was determined as 3%.

Turning to `O=C(Nc1ccc2scnc2c1)[C@H]1CCN(S(=O)(=O)c2ccc3c(c2)CCO3)C[C@H]1F` (racemic) [Compound 69, cis-(rac)-N-(benzo[d]thiazol-5-yl)-1-((2,3-dihydrobenzofuran-5-yl)sulfonyl)-3-fluoropiperidine-4-carboxamide], the IC50 stood at 2280 nM and the “EC80 MIN” value worked out at 2%.

Take `O=C(Nc1ccc2scnc2c1)[C@H]1CCN(S(=O)(=O)c2ccc3ncsc3c2)C[C@H]1F` (racemic) [Compound 70, cis-(rac)-N-(benzo[d]|thiazol-5-yl-1)-1-(benzo[d]thiazol-6-ylsulfonyl)-3-fluoropiperidine-4-carboxamide]: the concentration for half-maximal inhibition (IC50) is over 10000 nM and the “EC80 MIN” value amounted to 63%.

Consider `O=C(Nc1ccc2scnc2c1)[C@H]1CCN(S(=O)(=O)c2ccc(Cl)nc2)C[C@H]1F` (racemic) [Compound 71, cis-(rac)-N-(benzo[d]thiazol-5-yl)-1-((6-chloropyridin-3-yl)sulfonyl)-3-fluoropiperidine-4-carboxamide], for which the concentration for half-maximal inhibition (IC50) was over 10000 nM and the “EC80 MIN” value is listed as 20%.

For `O=C(Nc1ccc2scnc2c1)[C@H]1CCN(S(=O)(=O)c2cccnc2)C[C@H]1F` (racemic) [Compound 72, cis-(rac)-N-(benzo[d]thiazol-5-yl)-3-fluoro-1-(pyridin-3-ylsulfonyl)piperidine-4-carboxamide], the IC50 was over 10000 nM and the “EC80 MIN” value was 13%.

Take `Cc1nn(C)cc1S(=O)(=O)N1CC[C@H](C(=O)Nc2ccc3scnc3c2)[C@H](F)C1` (racemic) [Compound 73, cis-(rac)-N-(benzo[d]thiazol-5-yl)-1-((1,3-dimethyl-1H-pyrazol-4-yl)sulfonyl)-3-fluoropiperidine-4-carboxamide]: the concentration for half-maximal inhibition (IC50) was over 10000 nM and the “EC80 MIN” value is 45%.

On to `O=C(Nc1ccc2scnc2c1)[C@H]1CCN(S(=O)(=O)c2cccc3nsnc23)C[C@H]1F` (racemic) [Compound 75, cis-(rac)-1-(benzo[c][1,2,5]thiadiazol-4-ylsulfonyl)-N-(benzo[d]thiazol-5-yl)-3-fluoropiperidine-4-carboxamide], for which the concentration for half-maximal inhibition (IC50) came out at 4260 nM and the “EC80 MIN” value is reported as 18%.

As for `O=C(Nc1ccc2scnc2c1)[C@H]1CCN(S(=O)(=O)c2ccc3ncsc3c2)C[C@@H]1F` (racemic) [Compound 77, trans-(rac)-N-(benzo[d]thiazol-5-yl)-1-(benzo[d]thiazol-6-ylsulfony1)-3-fluoropiperidine-4-carboxamide], the concentration for half-maximal inhibition (IC50) came to 209 nM and the “EC80 MIN” value worked out at 2%.

For the compound `O=C(Nc1ccc2scnc2c1)[C@H]1CCN(S(=O)(=O)c2ccc(Cl)nc2)C[C@@H]1F` (racemic) [Compound 79, trans-(rac)-N-(benzo[d]thiazol-5-yl)-1-((6-chloropyridin-3-yl)sulfonyl)-3-fluoropiperidine-4-carboxamide], the IC50 came out at 139 nM and the “EC80 MIN” value is reported as 2%.

For the compound `Cc1nn(C)cc1S(=O)(=O)N1CC[C@H](C(=O)Nc2ccc3scnc3c2)[C@@H](F)C1` (racemic) [Compound 80, trans-(rac)-N-(benzo[d]thiazol-5-yl)-1-((1,3-dimethyl-1H-pyrazol-4-yl)sulfonyl1)-3-fluoropiperidine-4-carboxamide], the IC50 turned out to be 312 nM and the “EC80 MIN” value is listed as 3%.
